Assay results taken from US6787572B2, “Use of ubiquinone Q10 for the local treatment and prevention of post-surgical ophthalmologic pathologies” (priority 1999, dated 2004).

Legend:
[1] = system: RCE cells (Rabbit Corneal Epithelial Cells); experiment: Malondialdehyde assay (lipid peroxidation / free radical production) after radiation; format: cell-based; conditions: 2 h preincubation
Source text: The malondialdehyde is a product of the lipid peroxidation which occurs following exposure to free radicals of polyinsaturated fat acids. The malondialdehyde production is then routinely interpreted as a production index of the radicals themselves by means of treatment with electromagnetic radiations or oxidant substances. The Q10, as antioxidant, decreases the malondialdehyde production by indicating an action thereof which inhibits the free radicals' formation. To perform the malondialdehyde assay, RCE cells (Rabbit Corneal Epithelial Cells which are rabbit corneal keratocytes immortalized with SV40) have been plated at the density of 5×10^5 cell/plate in 10 plates of Petri with 10-cm diameter and incubated overnight in 5% CO2 atmosphere, 37° C. Then, the plates have been preincubated for 2 hours with Q10 10 μM, Vit.E, Vit. […] At the moment of the test the cells have been detached with trypsin according to standard procedures and counted by means of cell-counting chamber. […]
At 300 μl of buffy coat of each sample, 300 μl of thiobarbituric acid (TBA) by 1% have been added. The mixtures have been incubated at 95° C. for 30 minutes, centrifugated for 20 minutes at 12,000 RPM and the optic absorption of the buffy coat resulting by spettrophotometric analysis at λ=532 nm has been assessed. […]

RCE cells [2] = experiment: ATP levels after excimer laser or 254 nm radiation (firefly luciferase kit); format: cell-based, rabbit; conditions: Q10 10 μM in Lutrol F127; 2 h preincubation; 193 nm excimer laser (FIG. 2a) or 254 nm UV (FIG. 2b)
Method: In order to perform the ATP test, RCE cells have been placed at the density of 5×10^5 cells/plate in 10 plates of Petri with 10-cm diameter and incubated overnight in 5% CO2 atmosphere, 37° C. Subsequently the plates have been preincubated for 2 hours with Q10 at 10 μM dissolved in the Lutrol F127™ solution or with Lutrol F127™ only. The culture medium has been then replaced by 8 ml of sterile PBS, additioned with Ca^++ and Mg^++ to avoid the detach of the cells from the support and the plates have been submitted to treatment with excimer laser (λ=193 nm) as shown by FIG. 2a or with 254 nm ultraviolet laser, as shown in FIG. 2b. Subsequently the PBS has been replaced by fresh culture medium additioned with the above reagents and the plates have been incubated for further 2 hours. At the moment of the assay the cells have been detached with trypsin according to standard procedures and counted by means of cell-counting chamber. […] The ATP quantification in the extracts has been performed by the “ATP Determination Kit” (Molecular Probes, USA) kit, based upon the firefly lucipherase according to the supplier instructions. To detect fluorescence, an analyzer for liquid scintillation (Camberra Packard, USA) preset for the bioluminescence analysis has been utilized.

[3] = cited from earlier work
RCE cells [4] = experiment: Counting of vital cells by trypan blue exclusion test after radiation; format: cell-based, rabbit; conditions: Q10 10 μM in Lutrol F127; excimer laser and 254 nm UV (15,000 μJ/cm^2); FIGS. 5a, 5b
Method: However, the fact that the Q10 has a general protection effect against death by radiation is an important data in preventing […] collateral effects. In order to perform the trypan blue test, RCE cells have been plated at a density of 5×10^5 cells/plates with 10-cm diameter incubated overnight at 37° C., […]. Subsequently, the plates have been preincubated for 2 hours with Q10 10 μM dissolved in the Lutrol F127^MT solution or with Lutrol F127™ only. The culture medium has been then replaced by 8 ml of sterile PBS, additioned with Ca^++ and Mg^++ to avoid the cell detachment from the support, and the plates have undergone treatment with excimer laser and λ=254 UV radiation in a Stratalinker apparatus, model 1800 (Stratagene). Subsequently the PBS has been replaced by fresh culture medium additioned with the above reagents. The plates have been incubated for the time shown in FIG. 6a and in FIG. 6b and subsequently detached by trypsin according to standard procedures and resuspended in PBS. To the cell suspension a trypan blue solution in PBS by 1% concentration has been added immediately before the counting performed by means of cell-counting chamber. The number of live cells is shown in the FIGS. 4, 5a and 5b in the non-treated sample percentage.

RCE cells [5] = experiment: Counting of cumulative apoptotic deaths by videomicroscopy at time intervals; format: cell-based, rabbit; conditions: Q10 10 μM in Lutrol F127; 193 nm excimer laser and 254 nm UV; 24-72 hours after radiation; FIG. 6
Source text: The videomicroscopy at time intervals is up to now one of the few techniques, if not the only one, enabling to have, apart from the cell death-type characterization, the exact quantification thereof too. In fact by continuously considering the cell population it is possible to calculate the number of cumulative deaths without losing any death event due to the disintegration of the cell body which typically occurs during apoptosis.
To perform the experiment RCE cells have been plated at the density of 5×10^5 cells/plate with 10-cm diameter and incubated overnight at 37° C., CO2 10%. Subsequently, the plates have been preincubated for 2 hours with Q10 10 μM dissolved in the Lutrol F127^MT solution or with Lutrol F127™ only. The culture medium has been then replaced by 8 ml of sterile PBS, additioned with Ca^++ and Mg^++ to avoid the cell detachment from the support, and the plates have undergone treatment with excimer laser and λ=254 UV radiation in a Stratalinker apparatus, model 1800 (Stratagene) with various doses. Subsequently the PBS has been replaced by fresh culture medium additioned with the above reagents. […]

Question: With `COC1=C(OC)C(=O)C(C/C=C(\C)CC/C=C(\C)CC/C=C(\C)CC/C=C(\C)CC/C=C(\C)CC/C=C(\C)CC/C=C(\C)CC/C=C(\C)CC/C=C(\C)CCC=C(C)C)=C(C)C1=O` [Q10, ubiquinone Q10] as the compound, how does the “malondialdehyde levels following treatment with UV at 254 nm” value ([1]; Q10 10 μM in Lutrol F127, alone or in combination with Vit.E, Vit.C, 254 nm UV 15,000 μJ/cm^2, FIG. 1a) read?
Answer: protective effect

Question: What about the “malondialdehyde production following treatment with 193 nm excimer laser” value ([1]; Q10 10 μM in Lutrol F127, various doses of 193 nm excimer laser, FIG. 1b) of the same compound?
Answer: reductive effect against the malondialdehyde production

Question: And the “ATP level following radiation” value (RCE cells [2])?
Answer: protective effect opposing the decrease in the ATP level

Question: What about the solubility in water [3] of the same compound?
Answer: non-hydrosoluble substance

Question: And the “vitality of cells (number of live cells, trypan blue)” value (RCE cells [4])?
Answer: protective effect on the vitality of cells

Question: What about the cumulative apoptotic deaths (RCE cells [5]) of the same compound?
Answer: protective effect on cells treated with 193 nm excimer laser and 254 nm UV radiation
